Assay results published in ChEMBL document CHEMBL5620379, “Discovery, SAR and mechanistic studies of quinazolinone-based acetamide derivatives in experimental visceral leishmaniasis” (Eur J Med Chem, 2023).

What was measured:
J774 [1] = assay: Cytotoxicity against mouse J774 cells at 50 uM incubated for 72 hrs by MTT assay relative to control; assay type: toxicity, cell-based; settings: j774, 72 h
Leishmania donovani [2] = assay: Antileishmanial activity against Leishmania donovani promastigotes measured after 48 hrs by MTT assay; assay type: functional, organism-based
Leishmania donovani [3] = assay: Antileishmanial activity against Leishmania donovani infected in golden hamster assessed as inhibition of parasite growth in liver at 40 mg/kg, po administered for 7 days and measured after 28 days by giemsa staining based analysis relative to control; assay type: functional; set-up: scale not given: the % may be the effect or the level left; settings: time 28 day
Leishmania donovani [4] = assay: Antileishmanial activity against Leishmania donovani infected in golden hamster assessed as inhibition of parasite growth in spleen at 40 mg/kg, po administered for 7 days and measured after 28 days by giemsa staining based analysis relative to control; assay type: functional; set-up: scale not given: the % may be the effect or the level left; settings: time 28 day
[5] = Renal toxicity in golden hamster assessed as effect on urea level at 40 mg/kg, po measured after 28 days post infection; assay type: organism-based, Mesocricetus auratus; settings: in vivo, 672 h, time 28 day
Leishmania donovani [6] = assay: Antileishmanial activity against Leishmania donovani amastigotes infected in J774 macrophage assessed as inhibition of parasite growth incubated for 48 hrs by luciferase assay; assay type: functional, organism-based; settings: J774, 48 h
Leishmania donovani [7] = assay: Antileishmanial activity against amastigote form of Leishmania donovani infected in BALB/c mouse assessed as inhibition of parasite growth in liver at 10 mg/kg, po measured after 1 week post treatment by geimsa staining based analysis relative to control; assay type: functional; set-up: scale not given: the % may be the effect or the level left; settings: time 1 weeks
Leishmania donovani [8] = assay: Antileishmanial activity against Leishmania donovani infected in golden hamster assessed as inhibition of parasite growth in liver at 80 mg/kg, po administered for 7 days and measured after 28 days by giemsa staining based analysis relative to control; assay type: functional; set-up: scale not given: the % may be the effect or the level left; settings: time 28 day
[9] = Toxicity in golden hamster infected with Leishmania donovani assessed as reduction in serum ALT level at 40 mg/kg ,po and measured after 28 days post infection (reference value: 81.58 IU/L); assay type: organism-based, Mesocricetus auratus; settings: in vivo, 672 h, time 28 day
[10] = Stability of the compound in Tris-buffer at 10 ug/ml at pH 7.4 measured upto 120 min by HPLC analysis; assay type: physicochemical; settings: at 10 µg/mL, read-out: Stability
[11] = Toxicity in BALB/c mouse assessed as effect on skin texture at 10 to 40 mg/kg, po measured after 1 week; assay type: organism-based; settings: in vivo, 168 h, dose 10-40 mg/kg, time 1 weeks
Leishmania donovani [12] = assay: Antileishmanial activity against amastigote form of Leishmania donovani infected in BALB/c mouse assessed as inhibition of parasite growth in liver at 40 mg/kg, po measured after 1 week post treatment by geimsa staining based analysis relative to control; assay type: functional; set-up: scale not given: the % may be the effect or the level left; settings: time 1 weeks
Leishmania donovani [13] = assay: Antileishmanial activity against Leishmania donovani promastigotes at 25 uM measured after 48 hrs by MTT assay relative to control; assay type: functional
[14] = Toxicity in golden hamster infected with Leishmania donovani assessed as reduction in serum AST level at 40 mg/kg ,po and measured after 28 days post infection (reference value: 82.72 IU/L); assay type: organism-based, Mesocricetus auratus; settings: in vivo, 672 h, time 28 day
J774 [15] = assay: Cytotoxicity against mouse J774 cells at 25 uM incubated for 72 hrs by MTT assay relative to control; assay type: toxicity, cell-based; settings: j774, 72 h
[16] = Toxicity in BALB/c mouse assessed as effect on body weight at 10 to 40 mg/kg, po measured after 1 week; assay type: organism-based; settings: in vivo, 168 h, dose 10-40 mg/kg, time 1 weeks
Splenocyte [17] = assay: Immunostimulatory activity in mouse splenocyte assessed as decrease in IL-10 secretion at 10 to 40 mg/kg measured after 1 week by RT-PCR analysis relative to control; assay type: functional; set-up: scale not given: the % may be the effect or the level left; settings: dose 10-40 mg/kg, time 1 weeks
[18] = Stability of the compound in stimulated intestinal fluid at 10 ug/ml at pH 6.8 measured after 120 min by HPLC analysis; assay type: ADME; settings: simulated intestinal fluid, at 10 µg/mL, read-out: Stability
Leishmania donovani [19] = assay: Antileishmanial activity against amastigote form of Leishmania donovani infected in BALB/c mouse assessed as inhibition of parasite growth in liver at 20 mg/kg, po measured after 1 week post treatment by geimsa staining based analysis relative to control; assay type: functional; set-up: scale not given: the % may be the effect or the level left; settings: time 1 weeks
Leishmania donovani [20] = assay: Antileishmanial activity against amastigote form of Leishmania donovani infected in BALB/c mouse assessed as inhibition of parasite growth in spleen at 20 mg/kg, po measured after 1 week post treatment by geimsa staining based analysis relative to control; assay type: functional; set-up: scale not given: the % may be the effect or the level left; settings: time 1 weeks
Leishmania donovani [21] = assay: Antileishmanial activity against Leishmania donovani amastigotes infected in J774 macrophage assessed as inhibition of parasite growth at 25 uM incubated for 48 hrs by luciferase assay relative to control; assay type: functional; set-up: scale not given: the % may be the effect or the level left
J774 [22] = assay: Cytotoxicity against mouse J774 macrophage incubated for 72 hrs by MTT assay; assay type: functional
Splenocyte [23] = assay: Immunostimulatory activity in mouse splenocyte assessed as fold increase in IL-12 synthesis at 10 to 40 mg/kg measured after 1 week by RT-PCR analysis; assay type: functional; settings: dose 10-40 mg/kg; time 1 weeks
Leishmania donovani [24] = assay: Antileishmanial activity against amastigote form of Leishmania donovani infected in BALB/c mouse assessed as inhibition of parasite growth in spleen at 40 mg/kg, po measured after 1 week post treatment by geimsa staining based analysis relative to control; assay type: functional; set-up: scale not given: the % may be the effect or the level left; settings: time 1 weeks
[25] = Renal toxicity in golden hamster assessed as effect on creatinine level at 40 mg/kg, po measured after 28 days post infection; assay type: organism-based, Mesocricetus auratus; settings: in vivo, 672 h, time 28 day
J774 [26] = assay: Cytotoxicity against mouse J774 cells at 12.5 uM incubated for 72 hrs by MTT assay relative to control; assay type: toxicity, cell-based; settings: j774, 72 h
[27] = Stability of the compound in stimulated gastric fluid at 10 ug/ml at pH 1.2 measured upto 120 min by HPLC analysis; assay type: ADME; settings: simulated gastric fluid, at 10 µg/mL, read-out: Stability
[28] = Selectivity index, ratio of CC50 for mouse J774 macrophage to IC50 for Leishmania donovani amastigotes infected in J774 macrophage; assay type: toxicity; settings: J774 macrophages, read-out: Ratio CC50/IC50
Leishmania donovani [29] = assay: Antileishmanial activity against Leishmania donovani infected in golden hamster assessed as inhibition of parasite growth in spleen at 80 mg/kg, po administered for 7 days and measured after 28 days by giemsa staining based analysis relative to control; assay type: functional; set-up: scale not given: the % may be the effect or the level left; settings: time 28 day
Leishmania donovani [30] = assay: Antileishmanial activity against amastigote form of Leishmania donovani infected in BALB/c mouse assessed as inhibition of parasite growth in spleen at 10 mg/kg, po measured after 1 week post treatment by geimsa staining based analysis relative to control; assay type: functional; set-up: scale not given: the % may be the effect or the level left; settings: time 1 weeks
[31] = Renal toxicity in golden hamster assessed as effect on creatinine level at 30 mg/kg, po measured after 28 days post infection; assay type: organism-based, Mesocricetus auratus; settings: in vivo, 672 h, time 28 day
[32] = Toxicity in golden hamster infected with Leishmania donovani assessed as reduction in serum ALT level at 30 mg/kg ,po and measured after 28 days post infection (reference value: 81.58 IU/L); assay type: organism-based, Mesocricetus auratus; settings: in vivo, 672 h, time 28 day
[33] = Toxicity in golden hamster infected with Leishmania donovani assessed as reduction in serum AST level at 30 mg/kg ,po and measured after 28 days post infection (reference value: 82.72 IU/L); assay type: organism-based, Mesocricetus auratus; settings: in vivo, 672 h, time 28 day
Leishmania donovani [34] = assay: Antileishmanial activity against Leishmania donovani infected in golden hamster assessed as elimination of organ parasite burden at 30 mg/kg, po administered for 7 days and measured after 28 days by giemsa staining based analysis relative to control; assay type: functional; settings: time 28 day
[35] = Renal toxicity in golden hamster assessed as effect on urea level at 30 mg/kg, po measured after 28 days post infection; assay type: organism-based, Mesocricetus auratus; settings: in vivo, 672 h, time 28 day

`CCn1c(-c2ccc(OCC(=O)Nc3ccccc3)cc2)nc2ccccc2c1=O` showed an Activity (J774 [1]) of 42.29%, an IC50 (Leishmania donovani [2]) of 5.76 µM and an Activity (Leishmania donovani [3]) of 46.1%. For the same molecule, the Activity (Leishmania donovani [4]) was 53.9%, the Activity [5] was “Non-Toxic” and the IC50 (Leishmania donovani [6]) was 6.02 µM. The Activity (Leishmania donovani [7]) was 29.8%, the Activity (Leishmania donovani [8]) was 77.1% and the Activity [9] was 100.8 IU/L. The remaining at 2 h, 10 ug/ml [10] was 91.6%, the Activity [11] was “Non-Toxic” and the Activity (Leishmania donovani [12]) was 77.3%. For the same molecule, the Activity (Leishmania donovani [13]) was 84.61%, the Activity [14] was 119.82 IU/L and the Activity (J774 [15]) was 77.94%. The Activity [16] was “Non-Toxic”, the Activity (Splenocyte [17]) was 23.68% and the remaining at 2 h, 10 ug/ml [18] was 89.6%. It also gave an Activity (Leishmania donovani [19]) of 54.4%, an Activity (Leishmania donovani [20]) of 53.3% and an Activity (Leishmania donovani [21]) of 80.66%. For the same molecule, the CC50 (J774 [22]) was 72.9 µM, the “fold change (FC)” value (Splenocyte [23]) was 2.03 and the Activity (Leishmania donovani [24]) was 74.1%. The Activity [25] was “Non-Toxic”, the Activity (J774 [26]) was 84.82% and the remaining at 2 h, 10 ug/ml [27] was 88.8%. For the same molecule, the selectivity ratio [28] was 12.1, the Activity (Leishmania donovani [29]) was 75.7% and the Activity (Leishmania donovani [30]) was 28.1%.
In the case of `CCCCCCCCCCCCCCCCOP(=O)([O-])OCC[N+](C)(C)C` [MILTEFOSINE], the Activity [31] is reported as “Non-Toxic”, the Activity (J774 [1]) is reported as 53.21% and the Activity [32] is reported as 20 IU/L. It also gave an IC50 (Leishmania donovani [2]) of 6.91 µM, an IC50 (Leishmania donovani [6]) of 11 µM and an Activity (J774 [15]) of 76.74%. The Activity [33] was 25 IU/L, the Activity (Leishmania donovani [19]) was 97.23% and the Activity (Leishmania donovani [20]) was 98.51%. The Activity (Leishmania donovani [34]) was 100%, the CC50 (J774 [22]) was 68 µM and the Activity (J774 [26]) was 85.44%. For the same molecule, the selectivity ratio [28] was 6.21 and the Activity [35] was “Non-Toxic”.
